Test [1] has as its target T1, Serine/threonine-protein kinase ICK (Homo sapiens) (UniProt Q9UPZ9).
T1 sequence (whole entry): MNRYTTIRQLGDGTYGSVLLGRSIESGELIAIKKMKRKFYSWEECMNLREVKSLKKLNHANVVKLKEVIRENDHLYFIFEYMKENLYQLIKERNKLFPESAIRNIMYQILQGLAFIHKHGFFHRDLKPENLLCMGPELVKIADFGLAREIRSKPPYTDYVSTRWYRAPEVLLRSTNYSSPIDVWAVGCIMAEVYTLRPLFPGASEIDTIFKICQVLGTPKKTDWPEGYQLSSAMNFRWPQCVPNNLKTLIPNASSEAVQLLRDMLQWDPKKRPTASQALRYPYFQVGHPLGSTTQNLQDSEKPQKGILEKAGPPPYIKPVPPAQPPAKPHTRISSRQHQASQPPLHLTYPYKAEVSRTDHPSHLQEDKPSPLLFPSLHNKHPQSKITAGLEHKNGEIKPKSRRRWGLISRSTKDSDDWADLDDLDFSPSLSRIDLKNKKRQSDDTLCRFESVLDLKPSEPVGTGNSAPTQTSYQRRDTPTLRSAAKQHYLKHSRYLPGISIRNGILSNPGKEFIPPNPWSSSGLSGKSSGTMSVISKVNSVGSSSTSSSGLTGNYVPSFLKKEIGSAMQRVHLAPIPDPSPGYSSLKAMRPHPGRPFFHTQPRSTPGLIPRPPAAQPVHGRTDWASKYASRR
Nature of the test: Inhibition of human recombinant ICK at 40 nM in presence of ATP by radiometric assay relative to control.

The target of test [2] is Serine/threonine-protein kinase MARK1 (Homo sapiens) (UniProt Q9P0L2). Nature of the test: Inhibition of human recombinant MARK1 at 40 nM in presence of ATP by radiometric assay relative to control.
Sequence of Serine/threonine-protein kinase MARK1 (Homo sapiens) (Q9P0L2 whole entry, looked up): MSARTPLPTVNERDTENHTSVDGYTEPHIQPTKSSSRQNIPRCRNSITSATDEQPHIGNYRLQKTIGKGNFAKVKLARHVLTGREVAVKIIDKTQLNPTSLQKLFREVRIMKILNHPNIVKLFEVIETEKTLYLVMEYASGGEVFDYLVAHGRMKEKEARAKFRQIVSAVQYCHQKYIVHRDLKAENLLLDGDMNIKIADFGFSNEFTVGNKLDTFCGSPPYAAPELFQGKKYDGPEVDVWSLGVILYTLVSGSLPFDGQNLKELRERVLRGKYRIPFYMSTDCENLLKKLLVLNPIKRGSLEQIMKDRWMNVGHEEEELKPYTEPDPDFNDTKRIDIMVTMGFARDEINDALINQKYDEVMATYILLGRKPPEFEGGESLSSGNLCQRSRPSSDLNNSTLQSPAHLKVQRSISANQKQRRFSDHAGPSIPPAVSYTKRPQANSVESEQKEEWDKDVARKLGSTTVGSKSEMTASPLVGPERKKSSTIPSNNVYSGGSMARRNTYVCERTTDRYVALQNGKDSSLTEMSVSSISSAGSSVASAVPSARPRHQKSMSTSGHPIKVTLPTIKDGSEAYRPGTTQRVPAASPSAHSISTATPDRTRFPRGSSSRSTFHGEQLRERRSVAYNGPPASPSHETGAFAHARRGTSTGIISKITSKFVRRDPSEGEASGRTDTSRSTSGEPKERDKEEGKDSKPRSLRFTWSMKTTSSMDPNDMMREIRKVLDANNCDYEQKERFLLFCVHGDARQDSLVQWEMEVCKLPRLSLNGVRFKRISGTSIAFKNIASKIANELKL
For test [3], the target named is G protein-coupled receptor kinase 5 (Homo sapiens) (UniProt P34947). Nature of the test: Inhibition of human recombinant GPRK5 at 500 nM in presence of ATP by radiometric assay relative to control.
Sequence of G protein-coupled receptor kinase 5 (Homo sapiens) (P34947 whole entry, looked up): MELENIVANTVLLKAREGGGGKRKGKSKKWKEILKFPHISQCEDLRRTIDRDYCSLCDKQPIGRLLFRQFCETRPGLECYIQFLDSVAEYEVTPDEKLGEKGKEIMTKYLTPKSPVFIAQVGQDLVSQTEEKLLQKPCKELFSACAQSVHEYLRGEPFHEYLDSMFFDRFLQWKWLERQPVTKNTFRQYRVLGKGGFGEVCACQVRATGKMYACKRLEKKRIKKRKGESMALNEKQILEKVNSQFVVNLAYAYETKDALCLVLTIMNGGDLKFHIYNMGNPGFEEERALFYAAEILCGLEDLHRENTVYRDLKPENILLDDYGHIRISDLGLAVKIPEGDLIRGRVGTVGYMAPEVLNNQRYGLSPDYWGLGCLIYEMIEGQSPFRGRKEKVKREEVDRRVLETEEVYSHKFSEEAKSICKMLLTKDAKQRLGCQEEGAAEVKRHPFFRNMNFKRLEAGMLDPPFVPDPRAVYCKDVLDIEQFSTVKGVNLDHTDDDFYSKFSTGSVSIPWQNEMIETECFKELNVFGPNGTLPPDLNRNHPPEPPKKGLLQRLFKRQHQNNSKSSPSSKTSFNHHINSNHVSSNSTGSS
In test [4] the target is Serine/threonine-protein kinase 33 (Homo sapiens) (UniProt Q9BYT3). The test can be described thus: Inhibition of human recombinant STK33 at 500 nM related to control ULK1.
Sequence of Serine/threonine-protein kinase 33 (Homo sapiens) (Q9BYT3 whole entry, looked up): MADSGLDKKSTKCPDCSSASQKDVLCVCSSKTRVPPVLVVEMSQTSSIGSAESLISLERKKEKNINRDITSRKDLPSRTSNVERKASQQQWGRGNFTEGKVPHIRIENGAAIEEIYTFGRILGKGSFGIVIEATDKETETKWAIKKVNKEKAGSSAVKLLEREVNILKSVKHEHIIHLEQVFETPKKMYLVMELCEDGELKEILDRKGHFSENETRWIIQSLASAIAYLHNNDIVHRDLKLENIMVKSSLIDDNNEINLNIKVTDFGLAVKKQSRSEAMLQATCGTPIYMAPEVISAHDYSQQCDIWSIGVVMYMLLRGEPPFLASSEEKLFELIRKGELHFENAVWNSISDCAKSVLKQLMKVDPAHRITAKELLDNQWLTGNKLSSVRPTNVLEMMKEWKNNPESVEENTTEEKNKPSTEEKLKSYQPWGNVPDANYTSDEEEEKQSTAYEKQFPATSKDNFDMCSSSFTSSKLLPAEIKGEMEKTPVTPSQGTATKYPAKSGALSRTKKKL
Test [5] has as its target T2, Tyrosine-protein kinase TXK (Homo sapiens) (UniProt P42681).
T2 sequence (whole entry): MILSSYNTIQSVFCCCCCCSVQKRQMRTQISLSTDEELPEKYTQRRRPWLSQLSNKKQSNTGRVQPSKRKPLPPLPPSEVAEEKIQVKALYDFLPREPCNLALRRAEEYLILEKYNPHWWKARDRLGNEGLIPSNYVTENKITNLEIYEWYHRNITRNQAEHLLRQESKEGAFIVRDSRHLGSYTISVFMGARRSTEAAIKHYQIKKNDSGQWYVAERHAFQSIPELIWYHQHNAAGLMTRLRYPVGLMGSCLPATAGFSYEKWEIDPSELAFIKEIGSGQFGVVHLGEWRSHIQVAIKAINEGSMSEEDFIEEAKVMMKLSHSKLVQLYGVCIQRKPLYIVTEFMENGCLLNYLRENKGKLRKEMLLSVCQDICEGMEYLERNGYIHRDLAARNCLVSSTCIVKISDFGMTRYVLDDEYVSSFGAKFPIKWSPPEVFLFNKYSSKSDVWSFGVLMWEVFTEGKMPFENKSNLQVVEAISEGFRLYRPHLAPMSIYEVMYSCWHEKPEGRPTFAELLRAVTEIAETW
Nature of the test: Inhibition of human recombinant TXK at 500 nM related to control ULK1.

Test [6] has as its target Mitogen-activated protein kinase 10 (Homo sapiens) (UniProt P53779). The test can be described thus: Inhibition of human recombinant JNK3 at 500 nM in presence of ATP by radiometric assay relative to control.
Test [7] concerns the target Cyclin-dependent kinase 2 (Homo sapiens) (UniProt P24941). Nature of the test: Inhibition of human recombinant CDK2 at 15 nM related to control ULK1.
In test [8] the target is T3, Serine/threonine-protein kinase Nek1 (Homo sapiens) (UniProt Q96PY6).
T3 sequence (whole entry): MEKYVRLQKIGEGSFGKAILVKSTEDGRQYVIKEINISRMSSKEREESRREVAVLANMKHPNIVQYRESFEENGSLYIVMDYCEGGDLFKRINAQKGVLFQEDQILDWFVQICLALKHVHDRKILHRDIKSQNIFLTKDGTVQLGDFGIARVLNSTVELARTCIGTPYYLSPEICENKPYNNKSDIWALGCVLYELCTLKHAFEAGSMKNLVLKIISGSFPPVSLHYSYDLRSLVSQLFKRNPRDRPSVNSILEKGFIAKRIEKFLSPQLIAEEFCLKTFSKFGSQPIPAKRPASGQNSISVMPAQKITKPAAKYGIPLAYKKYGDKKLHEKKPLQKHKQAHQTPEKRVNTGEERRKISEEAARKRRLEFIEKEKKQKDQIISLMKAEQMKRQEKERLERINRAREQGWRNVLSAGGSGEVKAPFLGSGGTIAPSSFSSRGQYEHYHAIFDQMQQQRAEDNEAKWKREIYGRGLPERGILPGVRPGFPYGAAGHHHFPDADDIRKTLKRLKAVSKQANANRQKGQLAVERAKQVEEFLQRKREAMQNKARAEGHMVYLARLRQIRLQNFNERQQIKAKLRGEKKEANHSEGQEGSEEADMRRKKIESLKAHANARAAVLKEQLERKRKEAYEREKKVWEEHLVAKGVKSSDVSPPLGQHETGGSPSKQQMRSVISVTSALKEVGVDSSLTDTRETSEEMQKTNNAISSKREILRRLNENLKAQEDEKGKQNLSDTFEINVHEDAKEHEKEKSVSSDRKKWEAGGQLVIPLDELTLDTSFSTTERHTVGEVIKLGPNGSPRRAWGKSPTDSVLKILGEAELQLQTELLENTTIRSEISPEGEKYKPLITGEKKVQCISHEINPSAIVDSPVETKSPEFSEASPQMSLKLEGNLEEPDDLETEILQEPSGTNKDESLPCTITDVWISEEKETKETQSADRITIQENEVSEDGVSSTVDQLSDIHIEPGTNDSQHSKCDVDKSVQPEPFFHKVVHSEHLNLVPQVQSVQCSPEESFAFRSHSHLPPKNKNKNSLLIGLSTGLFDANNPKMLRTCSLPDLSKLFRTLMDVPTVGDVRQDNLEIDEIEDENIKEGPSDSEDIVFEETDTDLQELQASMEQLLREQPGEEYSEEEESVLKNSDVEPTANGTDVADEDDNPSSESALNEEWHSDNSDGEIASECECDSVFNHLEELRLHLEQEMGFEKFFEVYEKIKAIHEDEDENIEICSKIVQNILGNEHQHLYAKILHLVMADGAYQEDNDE
The test can be described thus: Inhibition of human recombinant NEK1 at 15 nM related to control ULK1.

Structures are written as SMILES.

Sequence of Mitogen-activated protein kinase 10 (Homo sapiens) (P53779 whole entry): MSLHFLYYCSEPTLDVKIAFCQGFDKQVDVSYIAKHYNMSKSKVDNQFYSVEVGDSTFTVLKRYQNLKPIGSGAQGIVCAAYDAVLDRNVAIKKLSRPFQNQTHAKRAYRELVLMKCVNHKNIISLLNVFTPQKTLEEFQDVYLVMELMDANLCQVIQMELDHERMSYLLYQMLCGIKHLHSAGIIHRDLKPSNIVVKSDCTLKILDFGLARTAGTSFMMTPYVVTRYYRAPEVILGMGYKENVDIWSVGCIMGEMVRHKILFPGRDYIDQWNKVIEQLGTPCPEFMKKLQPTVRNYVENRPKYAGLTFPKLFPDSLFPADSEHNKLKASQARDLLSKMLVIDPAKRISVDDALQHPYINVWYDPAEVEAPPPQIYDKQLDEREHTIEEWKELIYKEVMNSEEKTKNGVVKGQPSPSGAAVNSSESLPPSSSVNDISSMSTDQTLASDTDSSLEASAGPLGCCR

The inhibition is the drop in the measured response relative to a control, in per cent. Consider `O=C(N[C@@H](C1CC1)C(F)(F)F)c1cc(-c2cnn3cc(-c4ccc(F)cc4)cnc23)cs1`, for which the inhibition in test [1] came out at 0%; in test [2] it was 29%.

Regarding `CNC(=O)c1ccccc1Oc1nc(Nc2cc(OC)c(OC)c(OC)c2)ncc1Br`, the inhibition was found to be 1% in test [3] and 3% in test [6]. Further, the results for the fold change (FC) in test [4] and in test [5] were 0.05 and 0.23, respectively.

Take `CC(C)[C@H](NC(=O)c1cc(-c2cnn3cc(-c4ccc(OCCN5CCCCC5)cc4)cnc23)cs1)C(F)(F)F`: the results for the fold change (FC) in test [7] and in test [8] were 0.01 and 0.03, respectively.

The values are drawn from ChEMBL document CHEMBL5653631, “A Potent and Selective ULK1 Inhibitor Suppresses Autophagy and Sensitizes Cancer Cells to Nutrient Stress” (iScience, 2018).
